In the supplement of paper PMC4862054:

Columns and labels:
Details in all cases: incubation time: 72 h
CAL-120 [1] = test: normalised response (% of control), CellTox Green; higher = less cell death (100 = DMSO, 0 = benzethonium chloride kill control)
Outline: (§1)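 Each value is the plate-normalised signal at one concentration of the series. Breast cancer cell lines (20 µl suspension) were incubated 72 h in 384-well plates with compound at 5 concentrations in 10-fold steps over a compound-specific 10,000-fold range. CellTox Green and then CellTiter-Glo were read, and each plate was scaled to 0.1 % DMSO (100) and a positive kill control (0).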

HCC1143 [2] = test: as above
Outline: as §1

DU-4475 [3] = test: as above
Outline: as §1

CAL-51 [4] = test: as above
Outline: as §1

CAL-85-1 [5] = test: as above
Outline: as §1

HCC1599 [6] = test: as above
Outline: as §1

MCF-10A [7] = test: as above
Outline: as §1

CAL-148 [8] = test: as above
Outline: as §1

Hs578T [9] = test: as above
Outline: as §1

MDA-MB-436 [10] = test: as above
Outline: as §1

HDQ-P1 [11] = test: as above
Outline: as §1

MDA-MB-231 [12] = test: as above
Outline: as §1

BT-474 [13] = test: as above
Outline: as §1

BT-549 [14] = test: as above
Outline: as §1

MFM-223 [15] = test: as above
Outline: as §1

MDA-MB-453 [16] = test: as above
Outline: as §1

MDA-MB-468 [17] = test: as above
Outline: as §1

HCC1937 [18] = test: as above
Outline: as §1

CAL-120 [19] = test: normalised response (% of control), CellTiter-Glo; higher = more viable cells (100 = DMSO, 0 = benzethonium chloride kill control)
Outline: as §1

HCC1143 [20] = test: as above
Outline: as §1

DU-4475 [21] = test: as above
Outline: as §1

CAL-51 [22] = test: as above
Outline: as §1

CAL-85-1 [23] = test: as above
Outline: as §1

HCC1599 [24] = test: as above
Outline: as §1

MCF-10A [25] = test: as above
Outline: as §1

CAL-148 [26] = test: as above
Outline: as §1

Hs578T [27] = test: as above
Outline: as §1

MDA-MB-436 [28] = test: as above
Outline: as §1

HDQ-P1 [29] = test: as above
Outline: as §1

MDA-MB-231 [30] = test: as above
Outline: as §1

BT-474 [31] = test: as above
Outline: as §1

BT-549 [32] = test: as above
Outline: as §1

MFM-223 [33] = test: as above
Outline: as §1

MDA-MB-453 [34] = test: as above
Outline: as §1

SK-BR-3 = test: as above
Outline: as §1

MDA-MB-468 [35] = test: as above
Outline: as §1

HCC1937 [36] = test: as above
Outline: as §1

Row | SMILES | normalised response (CAL-120 [1]) [%] | normalised response (HCC1143 [2]) [%] | normalised response (DU-4475 [3]) [%] | normalised response (CAL-51 [4]) [%] | normalised response (CAL-85-1 [5]) [%] | normalised response (HCC1599 [6]) [%] | normalised response (MCF-10A [7]) [%] | normalised response (CAL-148 [8]) [%] | normalised response (Hs578T [9]) [%] | normalised response (MDA-MB-436 [10]) [%] | normalised response (HDQ-P1 [11]) [%] | normalised response (MDA-MB-231 [12]) [%] | normalised response (BT-474 [13]) [%] | normalised response (BT-549 [14]) [%] | normalised response (MFM-223 [15]) [%] | normalised response (MDA-MB-453 [16]) [%] | normalised response (MDA-MB-468 [17]) [%] | normalised response (HCC1937 [18]) [%] | normalised response (CAL-120 [19]) [%] | normalised response (HCC1143 [20]) [%] | normalised response (DU-4475 [21]) [%] | normalised response (CAL-51 [22]) [%] | normalised response (CAL-85-1 [23]) [%] | normalised response (HCC1599 [24]) [%] | normalised response (MCF-10A [25]) [%] | normalised response (CAL-148 [26]) [%] | normalised response (Hs578T [27]) [%] | normalised response (MDA-MB-436 [28]) [%] | normalised response (HDQ-P1 [29]) [%] | normalised response (MDA-MB-231 [30]) [%] | normalised response (BT-474 [31]) [%] | normalised response (BT-549 [32]) [%] | normalised response (MFM-223 [33]) [%] | normalised response (MDA-MB-453 [34]) [%] | normalised response (SK-BR-3) [%] | normalised response (MDA-MB-468 [35]) [%] | normalised response (HCC1937 [36]) [%]
1 | CC[C@H](C)C(=O)O[C@H]1C[C@H](O)C=C2C=C[C@H](C)[C@H](CC[C@@H](O)C[C@@H](O)CC(=O)O)[C@H]21 [Pravastatin] (1000 nM) | 100 | 59 | 99 | 87.6 | 93.4 | 95.4 | 108 | 99.8 | 95.2 | -66.6 | 112 | 85.4 | 99.3 | 85.2 | 98.5 | 105 | 134 | 95.4 | 95.3 | 94.3 | 82.1 | 54.5 | 95.5 | 70.8 | 96.1 | 87.6 | 98.4 | 18.9 | 92.2 | 89.9 | 85.8 | 96.3 | 85.5 | 87.7 | 86.2 | 89.9 | 86.9
2 | CCCS(=O)(=O)Nc1ccc(F)c(C(=O)c2c[nH]c3ncc(-c4ccc(Cl)cc4)cc23)c1F [Vemurafenib] (1000 nM) | 99.7 | 91.8 | 78.9 | 82.6 | 100 | 90.8 | 88.2 | 101 | 100 | 65.4 | 73.9 | 97 | 98 | 116 | 98 | 104 | 127 | 108 | 90 | 95.6 | 35 | 88.6 | 92.3 | 104 | 101 | 86.4 | 103 | 94.2 | 94.8 | 94.3 | 90.8 | 93.1 | 86.4 | 90.7 | 79 | 86.9 | 97.3
3 | O=C(O)C1(C(=O)O)CCC1.[NH2-].[NH2-].[Pt+2] [Carboplatin] (1000 nM) | 104 | 101 | 107 | 106 | 117 | 104 | 115 | 105 | 103 | 95.4 | 100 | 106 | 97.7 | 62 | 89.6 | 111 | 143 | 113 | 95.3 | 101 | 93.9 | 108 | 95.7 | 96.4 | 105 | 96.5 | 95.1 | 98.3 | 95.4 | 94.4 | 100 | 94.2 | 101 | 97.6 | 103 | 100 | 95
4 | Oc1ncc(N(CCCl)CCCl)c(O)n1 [Uracil mustard] (1000 nM) | 106 | 117 | 105 | 104 | 115 | 96 | 102 | 103 | 107 | 98.7 | 113 | 107 | 101 | 103 | 102 | 112 | 120 | 102 | 106 | 101 | 95.4 | 113 | 99.3 | 108 | 118 | 93.9 | 99 | 106 | 105 | 96.5 | 104 | 100 | 98.2 | 104 | 100 | 104 | 93.8
5 | Nc1nc2[nH]cc(CCc3ccc(C(=O)N[C@@H](CCC(=O)O)C(=O)O)cc3)c2c(=O)[nH]1 [Pemetrexed] (1000 nM) | 100 | 115 | 98.2 | 98.2 | 105 | 92 | 103 | 89.9 | 101 | 108 | 110 | 88 | 99.5 | 82.9 | 103 | 106 | 122 | 112 | 88.1 | 93.3 | 89.5 | 90.6 | 54.5 | 67.4 | 97.6 | 95.7 | 17.1 | 80.7 | 83.2 | 65.6 | 54.4 | 97.1 | 91.5 | 92.2 | 68.2 | 90 | 70.3
